One molecule from patent US20240124503A1, “HETEROAROMATIC PHOSPHONIUM SALTS AND THEIR USE TREATING CANCER” (FLORATEK PHARMA S.A., priority 2021, published 2024) can be followed below.

Type in all cases: cell-based
For test [1], the system named is A549. Description: Cell viability assay, A549. As to conditions: Homo sapiens; lung carcinoma cell line A549. The protocol: (§1) Antitumor activity of the compounds and doxorubicin as a positive control was assessed by using the CellTiter-Blue Cell Viability Assay (Promega, #G8082) or CellTiter-Glow® Luminescent Cell Viability assay (Promega #G7572) according to the manufacturer's instructions. The compounds were tested at 5 or 6 concentrations in half-log increments (highest concentration 30 μM or 100 μM) in duplicate or triplicate well conditions.
(§2) Tumor cells were grown at 37° C. in a humidified atmosphere with 5% CO2 in RPMI 1640 or DMEM medium, supplemented with 10% (v/v) fetal calf serum and 50 μg/ml gentamicin for up to 20 passages, and were passaged once or twice weekly. Cells were harvested using TrypLE or PBS buffer containing 1 mM EDTA, and the percentage of viable cells was determined using a CASY Model TI cell counter (OMNI Life Science). Cells were harvested from exponential phase cultures, counted and plated in 96 well flat-bottom microtiter plates at a cell density depending on the cell line's growth rate (4,000-20,000 cells/well depending on the cell line's growth rate, up to 60,000 for hematological cancer cell lines) in RPMI 1640 or DMEM medium supplemented with 10% (v/v) fetal calf serum and 50 μg/ml gentamicin (140 μl/well). […] Viability of cells was quantified by the CellTiter-Blue® cell viability assay (Promega G8081) or CellTiter-Glow® Luminescent Cell Viability assay (Promega #G7572). […]

Test [2] concerns MDA-MB-436. The test can be described thus: Cell viability assay, MDA-MB-436. The settings on record: Homo sapiens; breast carcinoma cell line MDA-MB-436. On the procedure:
as §1, §2

The subject of test [3] is stomach PDX. The test can be described thus: Cell viability, stomach PDX (panel statement). The settings on record: text summary of Table 22; read-out: IC50, stomach PDX growth. On the procedure: PDX-derived cell cultures were obtained from tumors explanted from mice and isolated by mechanical and enzymatic dissociation. […] Cells were harvested and seeded in 96-wells plates at a density of 1.25 to 5×10^3 cells/well for cytotoxicity assays. Cells were incubated 48 h at 37° C. prior to addition of test molecules and vehicle (DMSO, 0.1%) at desired final concentrations. Cell viability was assessed before drugs' addition (To) and 5 days after test molecules addition by measuring ATP cell content using CellTiter-Glo® Luminescent Cell Viability Assay (Promega) according to the manufacturer's instructions. Luciferase activity was measured on a luminometer (PerkinElmer® EnVision™). Each concentration of compounds was tested in triplicate.
Viability was calculated as a percentage of ATP value compared to vehicle treated controls.
For PDX primary cell cultures, the tumour tissue was washed with PBS containing antibiotic-antimycotic and non-tumour tissue and necrotic tumour tissues were separated. The tumour tissue was transferred to a new dish and cut into 1˜2 mm^3 fragments, resuspended in RPMI-1640 medium and centrifuged at 1,200 rpm for 6 min at room temperature. The pelleted material was resuspended with 15 mL of Tumour Cell Digestion Solution and incubated at 37° C. for 1 hour with agitation. […]

Test [4] relates to CHP-134. The test can be described thus: Cell viability assay, CHP-134. As to conditions: Homo sapiens; brain carcinoma cell line CHP-134. The protocol:
as §1, §2

For test [5], the system named is prostate cancer cell. Description: Cell viability, prostate cancer cells (panel statement). As to conditions: summary of Table 20; read-out: IC50, prostate cancer cell growth. The protocol:
as §1, §2

The test system of test [6] is MDA-MB-231. Description: Cell viability assay, MDA-MB-231. The settings on record: Homo sapiens; breast carcinoma cell line MDA-MB-231. On the procedure: as §1, §2
For test [7], the system named is parental H69 cells. The test can be described thus: Cell viability assay, parental H69 cells. The settings on record: Homo sapiens, NCI-H69; parental H69 cells (SCLC). The protocol: as §1, §2

pIC50: −log10 of the molar value.

The term pIC50 denotes the negative decadic logarithm of the IC50, by convention in mol/L. As for `COc1c(O)ccc2c(=O)c(O)c(-c3ccc(CCCC[P+](c4ccccc4)(c4ccccc4)c4ccccc4)cc3)oc12` [SND190, (4-(4-(3,7-Dihydroxy-8-methoxy-4-oxo-4H1-chromen-2-yl)phenyl)butyl)triphenylphosphonium bromide], the pIC50 is 4.86 in test [1]; 5.54 in test [2]; more than 4.70 in test [3]; 5.96 in test [4]; more than 5.00 in test [5]; 5.46 in test [6]. The pIC50 in test [7] is 5.85.
